Assay results taken from paper PMC3793924, “Targeting Androgen Receptor/Src Complex Impairs the Aggressive Phenotype of Human Fibrosarcoma Cells” (PLoS ONE, 2013).

Key:
HT1080 cell xenografts = HT1080 cell xenografts in nude male mice, tumor mass; format: in vivo; conditions: i.p. on alternate days for 4 weeks, Casodex 0.1 μg/mice (4 µg/Kg), DHT 0,1 μg/mice (3 μg/Kg), six animals per group
Protocol: Figure 1 Casodex inhibits the EGF-triggered DNA synthesis in human fibrosarcoma HT1080 cells and reduces the growth of HT1080 xenografts. Human fibrosarcoma HT1080 cells were used. In A, quiescent cells on coverslips were left un-stimulated or stimulated for 18 h with the indicated compounds. […] After in vivo pulse with BrdU (100 μM; Sigma), BrdU incorporation was analyzed by IF and expressed as % of total nuclei. Several independent experiments were performed in duplicate and the results were derived from at least 400 scored cells for each coverslip. Mean and SEM are shown. n represents the number of experiments. (**) p value< 0,001. […] In B, xenografts were established in nude male mice as described in Methods. […] Volumes of HT1080 cell xenografts were measured at the indicated times in two dimensions by a caliper and expressed as tumor mass (mm^3). […]
HT1080 cells in 50% (v/v) Matrigel solution in phosphate-buffered saline (PBS; pH 7.4) were subcutaneously injected in the dorsal posterior region at 2.5 x 10^6 cells/male athymic mice (CD mice, Charles-River Italia) without hormone priming. […] The tumor volumes of HT1080 cell xenografts were measured at indicated intervals in two dimensions by a caliper and expressed as tumor mass (mm^3). This is calculated according to the formula: a^2 × b × 0.5, where a is the width and b is the length of the tumor. […]

[1] = Body weight of xenografted mice; format: in vivo; conditions: Casodex i.p. on alternate days, 4 weeks; weighed twice weekly
Description: HT1080 cells in 50% (v/v) Matrigel solution in phosphate-buffered saline (PBS; pH 7.4) were subcutaneously injected in the dorsal posterior region at 2.5 x 10^6 cells/male athymic mice (CD mice, Charles-River Italia) without hormone priming. Animals were randomly selected for the treatment with Casodex (dissolved in 0.1% ethanol) or DHT (dissolved in 0.1% ethanol) or control vehicle intra-peritoneally for a total of 4 weeks. Each group consisted of six animals. For the treatment of each animal (average weight: 25.08 g), 200 μl of 1 μM Casodex (about 0.1 µg) in 0.1% ethanol or 200 μl of 1 μM DHT (about 3 μg/Kg body weight) or the same amount of vehicle alone were administered to the mice on alternate days. The tumor volumes of HT1080 cell xenografts were measured at indicated intervals in two dimensions by a caliper and expressed as tumor mass (mm^3). This is calculated according to the formula: a^2 × b × 0.5, where a is the width and b is the length of the tumor. Food and water were given ad libitum. […] Animal experimentation was reviewed and approved by the Animal Research Ethical Committee of “Istituto per la Diagnosi e la Cura dei Tumori- Fondazione “G. Pascale” (Naples-ITALY).

AR/Src complex = system: AR/Src complex; design: method as in PMID 17486077; conditions: androgen-challenged prostate cancer LNCaP cells; cited from earlier work
Description: (§1) Such a crosstalk has been previously analyzed in prostate cancer-derived LNCaP cells. […] The S1 peptide derives from the 377-386 amino-acid sequence of AR that is rich in prolines and is responsible for association of AR with t ...

HT1080 cells = conditions: various cell types, including HT1080 cells (Figure S1); cited from earlier work
Description: as §1

Row | Molecule | Growth of HT1080 xenografts (tumor mass) (HT1080 cell xenografts) | Body weight versus control mice [1] | Competition for AR association with the Src-SH3 domain (AR/Src complex) | Diffusion across membranes (HT1080 cells)
1 | CC(O)(CS(=O)(=O)c1ccc(F)cc1)C(=O)Nc1ccc(C#N)c(C(F)(F)F)c1 (stereo not shown) [Casodex] | tumor growth was drastically reduced | no difference in body weight |  | 
2 | Ac-PPPHPHARIK-NH2 [S1 peptide] |  |  | competes for this association | rapidly diffuses across membranes
